{
  "source": "patent US20150320773A1",
  "about": "“TREATMENT OF INFLAMMATION” (Vascular Biogenics Ltd., priority 2011, published 2015)",
  "key": {"CD4+ T-cells": {"test_system": "CD4+ T-cells", "experiment": "Chemotaxis assay of CD4+ T-cells", "conditions": "5 μg/ml; RANTES (100 ng/ml) and SDF-1α (50 ng/ml)"}, "C57B6J WT mice": {"test_system": "C57B6J WT mice", "experiment": "Thioglycollate-induced peritonitis model (monocyte migration in vivo)", "set-up": "species or system mouse", "conditions": "oral", "method": "After 5 days of administration, thioglycollate was injected to the peritoneal cavity of the mice to induce monocyte migration. Four days later, mice were sacrificed and migrating cells were collected from the peritoneum and counted by hemocytometer. Data are mean±SE, collected from 3-4 independent experiments. […] FIG. 26B is a FACS analysis. To characterize their identity, migrating cells were stained with the macrophage marker F4/80 and the neutrophils marker GR-1.\nIn this model, injection of thioglycollate to the peritoneal cavity induces a “sterile” inflammatory response recruiting peripheral monocytes to the peritoneum, where they differentiate into macrophages (Li, Y. M., et al., J. Immunol. Methods. 1997; 201:183-188). […] Upon sacrifice, the number and identity of the cells accumulating in the peritoneum was determined by FACS, and plasma samples were taken for quantification by Liquid Chromatography-Tandem Mass Spectrometry. Three days after thioglycollate injection 95% of the cells in the peritoneum were macrophages (F4/80 positive, GR-1 negative cells) (FIG. 26B)."}, "COX-1": {"target": "COX-1 (Homo sapiens, UniProt P23219)", "sequence (P23219 24-599)": "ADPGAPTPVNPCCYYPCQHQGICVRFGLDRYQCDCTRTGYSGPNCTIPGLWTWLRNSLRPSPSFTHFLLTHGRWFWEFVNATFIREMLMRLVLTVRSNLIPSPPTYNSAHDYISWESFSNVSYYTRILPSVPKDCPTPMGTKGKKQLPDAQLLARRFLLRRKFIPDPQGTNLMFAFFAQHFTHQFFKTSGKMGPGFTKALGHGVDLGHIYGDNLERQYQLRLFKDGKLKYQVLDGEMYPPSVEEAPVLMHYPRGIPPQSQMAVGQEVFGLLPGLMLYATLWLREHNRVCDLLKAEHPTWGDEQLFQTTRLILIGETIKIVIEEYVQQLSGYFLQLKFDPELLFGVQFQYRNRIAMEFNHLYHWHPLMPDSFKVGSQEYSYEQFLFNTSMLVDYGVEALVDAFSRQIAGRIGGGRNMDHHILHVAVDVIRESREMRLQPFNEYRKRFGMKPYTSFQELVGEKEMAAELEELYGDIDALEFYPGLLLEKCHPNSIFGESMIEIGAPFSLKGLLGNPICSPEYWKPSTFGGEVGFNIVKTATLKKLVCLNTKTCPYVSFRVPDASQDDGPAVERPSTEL", "conditions": "concentrations of up to 10 μM; data not shown"}, "monocytes": {"test_system": "monocytes", "experiment": "Phagocytosis assay (whole blood), monocytes", "assay_type": "cell-based, human", "set-up": "dose or concentration left out as unconfirmed", "conditions": "VB-201 doses of 5 or 10", "method": "Phagocytosis assays were conducted using pHrodo™ Phagocytosis Particle Labeling Kit (Invitrogen) according to the manufacturer protocol. […] Then, pHrodo dye-labeled E. coli bacteria were mixed with the treated blood samples, in 20:1 ratio of pHrodo™ particles to phagocytosing cells and incubated for additional 15 minutes. Each sample was analyzed both at 4° C. (no phagocytosis, negative control) and 37° C. Following incubation, red blood cells were removed by lysis and the samples were washed 3 times with wash buffer. For gating on specific subpopulations, cells were labeled with anti-CD14-FITC (monocytes and granulocytes marker, BD Biosciences) and anti-CD66b-PerCP/Cy5.5 (granulocytes marker, BioLegend) antibodies. pHrodo fluorescence intensity was analyzed by FACS.\nTo this end, a phagocytosis assay was performed on whole blood from healthy donors, and the capacity of leukocyte subsets to phagocytose PE-labeled E. Coli particles was tested in presence or absence of VB-201. As a negative control, we used blood without bacterial particles, while a positive control included blood and labeled-bacterial particles incubated at 37° C. Cells were then stained with CD14 and CD66b antibodies to differentiate between monocytes and granulocytes and were analyzed by FACS."}, "COX-2": {"target": "COX-2 (Homo sapiens, UniProt P35354)", "sequence (P35354 18-604)": "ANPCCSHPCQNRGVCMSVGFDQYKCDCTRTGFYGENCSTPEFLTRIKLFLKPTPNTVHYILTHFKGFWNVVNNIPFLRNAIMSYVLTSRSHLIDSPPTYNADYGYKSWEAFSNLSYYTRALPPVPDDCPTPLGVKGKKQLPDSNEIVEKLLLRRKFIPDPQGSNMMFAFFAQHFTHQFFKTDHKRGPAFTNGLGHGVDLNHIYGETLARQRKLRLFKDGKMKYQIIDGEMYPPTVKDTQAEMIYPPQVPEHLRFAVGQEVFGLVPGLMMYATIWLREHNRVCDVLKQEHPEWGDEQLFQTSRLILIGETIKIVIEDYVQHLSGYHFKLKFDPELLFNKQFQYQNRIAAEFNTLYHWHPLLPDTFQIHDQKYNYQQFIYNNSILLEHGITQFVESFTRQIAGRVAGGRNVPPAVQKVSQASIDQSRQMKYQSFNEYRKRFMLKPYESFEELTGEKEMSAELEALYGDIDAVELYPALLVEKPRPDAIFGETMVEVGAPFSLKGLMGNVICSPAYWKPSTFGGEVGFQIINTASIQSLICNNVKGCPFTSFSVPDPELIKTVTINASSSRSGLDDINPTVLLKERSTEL", "conditions": "concentrations of up to 10 μM; data not shown"}, "patients": {"test_system": "patients", "experiment": "Vascular inflammation in patients (statin therapy)", "assay_type": "in vivo, human", "conditions": "in some instances", "method": "In some examples according to any one of the embodiments of Methods 1a, 1b, 2, and 3 described herein, the vascular inflammation is measured using positron emission computed tomography (PET/CT) imaging quantifying 18-fluorodeoxyglucose (18-FDG) uptake as a target to background ratio (TBR), e.g., as described herein, or in Example 8 of WO2011/083465."}, "human Neutrophils": {"test_system": "human Neutrophils", "experiment": "Chemotaxis assay of human neutrophils", "conditions": "5 μg/ml; towards LPS or 10% FBS/MCP-3"}, "TLR2": {"target": "TLR2 (Homo sapiens, UniProt O60603)", "sequence (O60603 21-784)": "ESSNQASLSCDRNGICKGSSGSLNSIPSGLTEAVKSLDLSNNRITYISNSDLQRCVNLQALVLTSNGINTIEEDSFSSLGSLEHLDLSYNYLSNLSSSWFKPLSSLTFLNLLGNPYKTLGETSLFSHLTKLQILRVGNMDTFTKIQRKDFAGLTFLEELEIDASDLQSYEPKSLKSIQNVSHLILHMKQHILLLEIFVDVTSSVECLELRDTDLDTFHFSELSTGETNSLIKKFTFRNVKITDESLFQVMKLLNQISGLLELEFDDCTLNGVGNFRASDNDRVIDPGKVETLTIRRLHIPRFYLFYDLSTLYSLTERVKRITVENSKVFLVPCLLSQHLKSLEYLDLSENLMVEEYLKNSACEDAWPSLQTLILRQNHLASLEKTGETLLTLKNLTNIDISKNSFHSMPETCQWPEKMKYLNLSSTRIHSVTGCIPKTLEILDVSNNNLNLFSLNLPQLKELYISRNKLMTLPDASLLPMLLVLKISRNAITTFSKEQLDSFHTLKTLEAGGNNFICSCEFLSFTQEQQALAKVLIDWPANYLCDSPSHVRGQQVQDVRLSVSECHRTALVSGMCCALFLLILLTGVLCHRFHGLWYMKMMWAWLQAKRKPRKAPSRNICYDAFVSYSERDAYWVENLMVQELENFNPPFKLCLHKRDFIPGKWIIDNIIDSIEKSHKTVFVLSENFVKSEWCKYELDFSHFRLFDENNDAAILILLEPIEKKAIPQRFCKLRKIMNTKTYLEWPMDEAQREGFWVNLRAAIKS", "conditions": "1 μM SAA, 5 μg/ml VB-201"}, "[1]": {"test_system": "NIH-3T3 mouse fibroblasts", "experiment": "Wound-healing 'scratch' assay", "assay_type": "cell-based", "conditions": "data not shown"}, "TLR4": {"target": "TLR4 (Homo sapiens, UniProt O00206)", "sequence (O00206 24-839)": "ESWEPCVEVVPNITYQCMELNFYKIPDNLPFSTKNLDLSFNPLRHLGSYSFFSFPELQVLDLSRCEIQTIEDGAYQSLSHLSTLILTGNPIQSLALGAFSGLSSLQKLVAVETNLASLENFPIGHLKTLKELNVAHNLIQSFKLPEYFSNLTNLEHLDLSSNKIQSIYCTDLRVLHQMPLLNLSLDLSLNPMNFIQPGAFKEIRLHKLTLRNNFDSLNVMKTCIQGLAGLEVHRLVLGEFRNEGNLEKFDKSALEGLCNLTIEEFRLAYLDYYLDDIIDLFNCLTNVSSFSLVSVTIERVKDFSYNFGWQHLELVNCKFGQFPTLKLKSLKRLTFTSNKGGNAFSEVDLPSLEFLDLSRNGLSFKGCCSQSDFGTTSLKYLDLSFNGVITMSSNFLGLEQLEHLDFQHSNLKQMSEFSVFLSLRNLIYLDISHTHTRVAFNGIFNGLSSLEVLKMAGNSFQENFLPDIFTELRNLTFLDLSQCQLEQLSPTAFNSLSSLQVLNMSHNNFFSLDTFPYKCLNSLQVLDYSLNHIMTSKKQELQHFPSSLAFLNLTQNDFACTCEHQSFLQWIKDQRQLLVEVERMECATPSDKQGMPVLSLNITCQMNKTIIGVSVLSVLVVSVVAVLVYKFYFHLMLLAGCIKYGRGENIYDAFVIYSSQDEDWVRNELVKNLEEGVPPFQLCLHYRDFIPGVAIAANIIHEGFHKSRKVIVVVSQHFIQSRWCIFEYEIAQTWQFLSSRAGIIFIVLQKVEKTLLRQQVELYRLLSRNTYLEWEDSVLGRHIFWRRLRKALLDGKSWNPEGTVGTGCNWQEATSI", "sequence (Q9Y6Y9 17-160 partner limits assumed)": "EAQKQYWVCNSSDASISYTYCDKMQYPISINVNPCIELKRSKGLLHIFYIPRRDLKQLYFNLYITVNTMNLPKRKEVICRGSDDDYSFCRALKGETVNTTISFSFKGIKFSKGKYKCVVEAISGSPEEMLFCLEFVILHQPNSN", "conditions": "human monocytes; LPS; 1.7, 8.5 or 17 μM"}, "TLR9": {"target": "TLR9 (Mus musculus, UniProt Q9EQU3)", "sequence (Q9EQU3 26-1032)": "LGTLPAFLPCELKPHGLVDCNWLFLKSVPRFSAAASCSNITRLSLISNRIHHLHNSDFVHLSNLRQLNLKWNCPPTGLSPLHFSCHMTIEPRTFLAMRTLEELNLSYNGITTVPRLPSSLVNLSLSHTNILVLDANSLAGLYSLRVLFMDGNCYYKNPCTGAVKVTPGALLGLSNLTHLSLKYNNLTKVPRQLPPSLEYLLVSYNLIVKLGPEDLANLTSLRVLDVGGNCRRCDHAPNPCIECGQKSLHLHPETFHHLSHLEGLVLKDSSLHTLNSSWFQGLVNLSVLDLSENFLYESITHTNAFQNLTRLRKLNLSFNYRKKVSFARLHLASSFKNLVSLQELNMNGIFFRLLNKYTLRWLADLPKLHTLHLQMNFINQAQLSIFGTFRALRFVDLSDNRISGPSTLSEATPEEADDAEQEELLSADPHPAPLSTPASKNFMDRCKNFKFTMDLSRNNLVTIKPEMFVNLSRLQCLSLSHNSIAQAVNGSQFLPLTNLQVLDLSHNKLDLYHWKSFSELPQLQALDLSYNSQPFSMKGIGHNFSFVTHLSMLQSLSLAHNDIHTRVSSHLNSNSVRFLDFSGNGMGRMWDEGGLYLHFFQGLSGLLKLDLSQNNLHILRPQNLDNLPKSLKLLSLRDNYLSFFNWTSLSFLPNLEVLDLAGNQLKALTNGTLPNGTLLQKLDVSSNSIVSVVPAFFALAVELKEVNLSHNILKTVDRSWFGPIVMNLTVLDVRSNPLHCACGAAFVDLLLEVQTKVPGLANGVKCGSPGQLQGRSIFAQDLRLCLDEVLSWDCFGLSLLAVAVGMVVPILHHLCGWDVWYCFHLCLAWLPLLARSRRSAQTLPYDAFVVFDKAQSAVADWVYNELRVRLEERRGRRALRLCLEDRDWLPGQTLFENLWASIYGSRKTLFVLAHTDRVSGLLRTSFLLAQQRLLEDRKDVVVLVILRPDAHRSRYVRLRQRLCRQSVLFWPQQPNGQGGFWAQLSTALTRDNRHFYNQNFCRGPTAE", "conditions": "mouse BMDCs; CpG; 1.7, 8.5 or 17 μM"}},
  "note": "Read-outs that look alike come from different tables or passages of the source.",
  "data": [
    {"smiles": "CCCCCCCCCCCCCCCCOC[C@H](COP(=O)([O-])OCC[N+](C)(C)C)OCCCCC(=O)O", "note": "[VB-201, (R)-1-hexadecyl-2-(4′-carboxyl)butyl-sn-glycero-3-phosphocholine]", "values": [
      {"measurement": "CD4 cell chemotaxis", "setting": "CD4+ T-cells", "result": "unable to find any inhibition"},
      {"measurement": "inhibition of peritoneal macrophage accumulation", "setting": "C57B6J WT mice; 0.04 mg/kg/day", "result": "no inhibitory effect"},
      {"measurement": "inhibition of peritoneal macrophage accumulation", "setting": "C57B6J WT mice; 0.4 mg/kg", "result": "~25", "unit": "%"},
      {"measurement": "reduction in the number of peritoneal macrophages relative to PBS-treated animals", "setting": "C57B6J WT mice; 4 mg/kg", "result": "> 60", "unit": "%"},
      {"measurement": "inhibition of COX-1", "setting": "COX-1", "result": "No inhibition"},
      {"measurement": "monocyte phagocytosis capacity", "setting": "monocytes", "result": "did not have any significant effect"},
      {"measurement": "inhibition of COX-2", "setting": "COX-2", "result": "No inhibition"},
      {"measurement": "effect on vascular inflammation in patients undergoing statin therapy versus patients not being treated with statins", "setting": "patients", "result": "slightly better"},
      {"measurement": "chemotaxis of human Neutrophils", "setting": "human Neutrophils", "result": "no effect on chemotaxis"},
      {"measurement": "activation of p38, ERK1/2 and the NFκB pathway following activation of TLR2 by serum amyloid A", "setting": "TLR2; THP-1 cells", "result": "inhibited activation of p38, ERK1/2 and the NFκB pathway"},
      {"measurement": "activation of p38, ERK1/2 and the NFκB pathway following activation of TLR2 by serum amyloid A", "setting": "TLR2; human CD14+ cells", "result": "inhibited activation of p38, ERK1/2 and the NFκB pathway"},
      {"measurement": "cell migration in wound-healing scratch assay", "setting": "[1]", "result": "no effect on cell migration"},
      {"measurement": "activation of p38, ERK1/2 and the NFκB pathway following activation of TLR4", "setting": "TLR4", "result": "inhibited activation of p38, ERK1/2 and the NFκB pathway in a dose-dependent manner"},
      {"measurement": "p38 phosphorylation following activation of TLR9", "setting": "TLR9", "result": "no apparent effect"}
    ]}
  ]
}
